Results reported in PubChem BioAssay AID328 (DTP/NCI, 2004).
Several values for one entry are separate records, joined by “and”; a condition that tells them apart may be missing. Equal values may be shown once. Inconclusive results and toxic doses are left out. The calls were made as follows: active = survival T/C of 150% or more; inactive = T/C below 125% in these data.

System: BDF1 mice, P388 leukemia ip, median survival T/C
Experiment: NCI In Vivo Anticancer Drug Screen. Data for tumor model P388 Leukemia (intraperitoneal) in B6D2F1 (BDF1) mice
Details: endpoint: median survival time, higher = longer survival
Method: The antitumor activity of compounds was measured in mice bearing transplantable tumors. Survival or tumor size were measured and the results are expressed as the measurement made in the treated group (T) divided by the measurement made in the vehicle treated control group (C). The tumor model used in this assay is P388 Leukemia (intraperitoneal) in B6D2F1 (BDF1) mice

[1] = dose: 100.0 mg/kg/injection, schedule: Q01DX009 (ip), vehicle: Klucel (hydroxypropylcellulose) (HPC)
[2] = dose: 200.0 mg/kg/injection, schedule: Q01DX009 (ip), vehicle: Klucel (hydroxypropylcellulose) (HPC)
[3] = dose: 400.0 mg/kg/injection, schedule: Q01DX009 (ip), vehicle: Klucel (hydroxypropylcellulose) (HPC)
[4] = dose: 12.5 mg/kg/injection, schedule: Q01DX009 (ip), vehicle: Klucel (hydroxypropylcellulose) (HPC)
[5] = dose: 25.0 mg/kg/injection, schedule: Q01DX009 (ip), vehicle: saline
[6] = dose: 50.0 mg/kg/injection, schedule: Q01DX009 (ip), vehicle: saline
[7] = dose: 50.0 mg/kg/injection, schedule: Q01DX009 (ip), vehicle: Klucel (hydroxypropylcellulose) (HPC)
[8] = dose: 100.0 mg/kg/injection, schedule: Q04DX003 (ip), vehicle: Klucel (hydroxypropylcellulose) (HPC)
[9] = dose: 200.0 mg/kg/injection, schedule: Q04DX003 (ip), vehicle: Klucel (hydroxypropylcellulose) (HPC)
[10] = dose: 400.0 mg/kg/injection, schedule: Q04DX003 (ip), vehicle: Klucel (hydroxypropylcellulose) (HPC)
[11] = dose: 100.0 mg/kg/injection, schedule: Q01DX009 (ip), vehicle: saline
[12] = dose: 100.0 mg/kg/injection, schedule: Q04DX003 (ip), vehicle: saline
[13] = dose: 200.0 mg/kg/injection, schedule: Q04DX003 (ip), vehicle: saline
[14] = dose: 100.0 mg/kg/injection, schedule: Q01DX009 (ip), vehicle: saline with Tween-80
[15] = dose: 150.0 mg/kg/injection, schedule: Q01DX009 (ip), vehicle: saline with Tween-80

Measured: T/C

O=C1NC(c2ccc3ccccc3n2)Nc2ccccc21 (stereo unspecified)
inactive: [1] 105 % of control | [2] 100 % of control | [3] 110 % of control

COc1cc2cc(c1Cl)N(C)C(=O)/C=C/C1(C)OC1C(C)C1CC(O)(NC(=O)O1)C(OC)C=C/C=C(\C)C2 (stereo unspecified)
inactive: dose: 0.2 micrograms/kg/injection, schedule: Q01DX009 (ip), vehicle: saline + alcohol 90 % of control | dose: 0.4 micrograms/kg/injection, schedule: Q01DX009 (ip), vehicle: saline + alcohol 90 % of control | dose: 0.8 micrograms/kg/injection, schedule: Q01DX009 (ip), vehicle: saline + alcohol 90 % of control | dose: 1.6 micrograms/kg/injection, schedule: Q01DX009 (ip), vehicle: saline + alcohol 90 % of control | dose: 3.1 micrograms/kg/injection, schedule: Q01DX009 (ip), vehicle: saline + alcohol 90 % of control | dose: 100.0 micrograms/kg/injection, schedule: Q01DX009 (ip), vehicle: saline + alcohol 110 % of control

CCOC(=O)CC(C)=O.[Cu+2]
inactive: dose: 6.25 mg/kg/injection, schedule: Q01DX009 (ip), vehicle: Klucel (hydroxypropylcellulose) (HPC) 100 % of control | [4] 90 % of control

OCC1C2CCC(C2)C1CO (stereo unspecified)
inactive: dose: 12.5 mg/kg/injection, schedule: Q01DX009 (ip), vehicle: saline 105 % of control | [5] 110 % of control | [6] 115 % of control | dose: 75.0 mg/kg/injection, schedule: Q01DX009 (ip), vehicle: saline 115 % of control | dose: 115.0 mg/kg/injection, schedule: Q01DX009 (ip), vehicle: saline 95 % of control

C[C@]12CCC(=O)C=C1CC[C@@H]1C2=CC[C@@]2(C)[C@H]1CC[C@]2(C)O
inactive: dose: 0.78 mg/kg/injection, schedule: Q01DX009 (ip), vehicle: Klucel (hydroxypropylcellulose) (HPC) 100 % of control | dose: 1.56 mg/kg/injection, schedule: Q01DX009 (ip), vehicle: Klucel (hydroxypropylcellulose) (HPC) 90 % of control | dose: 3.12 mg/kg/injection, schedule: Q01DX009 (ip), vehicle: Klucel (hydroxypropylcellulose) (HPC) 86 % of control | [7] 87 % of control | [8] 109 % of control | [2] 87 % of control | [9] 104 % of control

CC12CCC3C(CCC4=CC(=O)CCC43C)C1CCC(=O)O2 (stereo unspecified)
inactive: [4] 95 % of control | dose: 25.0 mg/kg/injection, schedule: Q01DX009 (ip), vehicle: Klucel (hydroxypropylcellulose) (HPC) 95 % of control | [7] 104 % of control | [1] 95 % of control | [8] 109 % of control | [9] 90 % of control | [10] 90 % of control

CCOC(=O)C(/C=N/C(N)=O)=C(\C)O
inactive: [1] 87 % of control | [8] 100 % of control | [2] 95 % of control | [9] 95 % of control | [3] 87 % of control | [10] 95 % of control

CCCCNc1ccc([N+](=O)[O-])cc1[N+](=O)[O-]
inactive: dose: 50.0 mg/kg/injection, schedule: Q01DX009 (ip), vehicle: other 95 % of control | dose: 100.0 mg/kg/injection, schedule: Q01DX009 (ip), vehicle: other 101 % of control | dose: 200.0 mg/kg/injection, schedule: Q01DX009 (ip), vehicle: other 105 % of control

NC(=O)N(CCO)CCO
inactive: [11] 100 % of control | [12] 100 % of control | dose: 200.0 mg/kg/injection, schedule: Q01DX009 (ip), vehicle: saline 90 % of control | [13] 100 % of control | dose: 400.0 mg/kg/injection, schedule: Q01DX009 (ip), vehicle: saline 100 % of control | dose: 400.0 mg/kg/injection, schedule: Q04DX003 (ip), vehicle: saline 100 % of control

ClCCN(CCCl)c1ccc2c3c(cccc13)-c1ccccc1-2
active: dose: 66.0 mg/kg/injection, schedule: Q01DX009 (ip), vehicle: saline with Tween-80 151 % of control | [14] 177 % of control | dose: 132.0 mg/kg/injection, schedule: Q04DX003 (ip), vehicle: saline with Tween-80 160 % of control | [15] 214 % of control | dose: 200.0 mg/kg/injection, schedule: Q04DX003 (ip), vehicle: saline with Tween-80 182 % of control | dose: 300.0 mg/kg/injection, schedule: Q04DX003 (ip), vehicle: saline with Tween-80 226 % of control

O=[N+]([O-])CC(O)c1ccc2ccccc2n1 (stereo unspecified)
inactive: [5] 86 % of control | [6] 86 % of control | dose: 50.0 mg/kg/injection, schedule: Q04DX003 (ip), vehicle: saline 109 % of control | [11] 89 % of control | [12] 95 % of control | [13] 90 % of control

COc1cc(OC)c(NC(=O)c2ccc([N+](=O)[O-])s2)cc1Cl
inactive: dose: 25.0 mg/kg/injection, schedule: Q01DX005 (ip), vehicle: saline 102 % of control | dose: 50.0 mg/kg/injection, schedule: Q01DX005 (ip), vehicle: saline 89 % of control

COc1cc(C=Nc2ccc(C(=O)O)c(O)c2)ccc1N(CCCl)CCCl
inactive: dose: 5.4 mg/kg/injection, schedule: Q01DX009 (ip), vehicle: Klucel (hydroxypropylcellulose) (HPC) 94 % of control | dose: 12.5 mg/kg/injection, schedule: Q04DX003 (ip), vehicle: Klucel (hydroxypropylcellulose) (HPC) 115 % of control | dose: 18.75 mg/kg/injection, schedule: Q01DX009 (ip), vehicle: Klucel (hydroxypropylcellulose) (HPC) 96 % of control | dose: 25.0 mg/kg/injection, schedule: Q04DX003 (ip), vehicle: Klucel (hydroxypropylcellulose) (HPC) 115 % of control | dose: 50.0 mg/kg/injection, schedule: Q04DX003 (ip), vehicle: Klucel (hydroxypropylcellulose) (HPC) 100 % of control
active: dose: 3.6 mg/kg/injection, schedule: Q01DX009 (ip), vehicle: Klucel (hydroxypropylcellulose) (HPC) 196 % of control | dose: 8.2 mg/kg/injection, schedule: Q01DX009 (ip), vehicle: Klucel (hydroxypropylcellulose) (HPC) 245 % of control | dose: 8.3 mg/kg/injection, schedule: Q01DX009 (ip), vehicle: Klucel (hydroxypropylcellulose) (HPC) 184 % of control | [4] 230 % of control and 272 % of control and 213 % of control

CC1(CO)C(O)CCC2(C)C1CCC1CC3CC12CCC3(O)CO (stereo unspecified)
active: dose: 75.0 mg/kg/injection, schedule: Q01DX009 (ip), vehicle: saline with Tween-80 155 % of control | [15] 155 % of control

N#CC1CCCCC1C1(C#N)CCCCC1Cc1ccccn1 (stereo unspecified)
inactive: dose: 100.0 mg/kg/injection, schedule: Q04DX002 (ip), vehicle: saline with Tween-80 98 % of control | dose: 200.0 mg/kg/injection, schedule: Q04DX002 (ip), vehicle: saline with Tween-80 107 % of control | dose: 400.0 mg/kg/injection, schedule: Q04DX002 (ip), vehicle: saline with Tween-80 92 % of control

C=Cn1ccc(=O)[nH]c1=O (tested in a mixture with another compound)
inactive: dose: 50.0 mg/kg/injection, schedule: Q01DX009 (ip), vehicle: saline with Tween-80 86 % of control | [14] 121 % of control | dose: 200.0 mg/kg/injection, schedule: Q01DX009 (ip), vehicle: saline with Tween-80 93 % of control
